Literature values in US7147875B2, “Method and composition for relieving symptoms of arthritis and gout using fruit of miracles” (priority 2004, dated 2006).

COc1cc2c(c(OC)c1OC)-c1ccc(OC)c(=O)cc1[C@@H](NC(C)=O)CC2 [colchicine]
Time until the pain is completely relieved (from starting treatment): 48 h
Time until the pain subsides (from starting treatment): ≤ 12 h
Reducing pain, swelling and inflammation associated with acute gout attacks (in vivo): effective
Uric acid levels in the bloodstream (in vivo): does not decrease
